pIC50: −log10 of the molar value.
Assays:
Format in all cases: biochemical
[1] = biological target: T1, human GST-DYRK1A (full length) (Homo sapiens, UniProt Q13627); assay: GST-DYRK1A enzyme inhibition, ADP-Glo kinase assay; conditions: read-out: DYRK1 IC50
T1 construct: purified human GST-DYRK1A (full length, Thermo scientifics) enzyme; GST; purchased Thermo scientifics
In short: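 ADP-Glo luminescence quantified kinase activity after a 1 h, 25° C reaction of 10 ng full-length GST-tagged human DYRK1A, substrate and 10 uM ATP in Tris-HCl buffer pH 7.4 with MgCl2, BSA and DTT. Triplicate IC50 values (nM) calculated relative to untreated solvent control.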

human GST-CLK1 (129-end) = biological target: T2, human GST-CLK1 (129-end) (Homo sapiens, UniProt P49759); assay: GST-CLK1 enzyme inhibition, ADP-Glo kinase assay; conditions: ATP 10 uM
T2 construct: purified human GST-CLK1 (129-end, Signalchem) enzyme; GST; purchased Signalchem
T2 sequence (P49759 129-484 limits assumed): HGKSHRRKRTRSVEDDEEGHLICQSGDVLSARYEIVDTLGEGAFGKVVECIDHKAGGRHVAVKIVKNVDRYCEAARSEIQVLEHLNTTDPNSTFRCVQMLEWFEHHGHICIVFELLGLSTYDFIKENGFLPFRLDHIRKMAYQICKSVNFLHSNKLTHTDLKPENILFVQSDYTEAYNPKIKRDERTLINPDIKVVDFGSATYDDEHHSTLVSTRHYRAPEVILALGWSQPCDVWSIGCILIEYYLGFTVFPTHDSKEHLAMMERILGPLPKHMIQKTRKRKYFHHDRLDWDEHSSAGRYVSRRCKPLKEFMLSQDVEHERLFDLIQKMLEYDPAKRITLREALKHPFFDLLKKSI
In short: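 ADP formation was read by ADP-Glo luminescence after 1 h at 25° C with 3 ng human GST-CLK1 (129-end), substrate and 10 uM ATP in Tris pH 7.4 buffer containing MgCl2, BSA and DTT. Inhibition relative to untreated solvent control gave IC50 (nM), run in triplicate.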

LRRK2 = LRRK2 (Homo sapiens, UniProt Q5S007); assay: LRRK2 enzyme inhibition, ADP-Glo kinase assay; design: purchased Invitrogen PR8604B
Sequence of LRRK2 (Q5S007 970-2527 limits assumed): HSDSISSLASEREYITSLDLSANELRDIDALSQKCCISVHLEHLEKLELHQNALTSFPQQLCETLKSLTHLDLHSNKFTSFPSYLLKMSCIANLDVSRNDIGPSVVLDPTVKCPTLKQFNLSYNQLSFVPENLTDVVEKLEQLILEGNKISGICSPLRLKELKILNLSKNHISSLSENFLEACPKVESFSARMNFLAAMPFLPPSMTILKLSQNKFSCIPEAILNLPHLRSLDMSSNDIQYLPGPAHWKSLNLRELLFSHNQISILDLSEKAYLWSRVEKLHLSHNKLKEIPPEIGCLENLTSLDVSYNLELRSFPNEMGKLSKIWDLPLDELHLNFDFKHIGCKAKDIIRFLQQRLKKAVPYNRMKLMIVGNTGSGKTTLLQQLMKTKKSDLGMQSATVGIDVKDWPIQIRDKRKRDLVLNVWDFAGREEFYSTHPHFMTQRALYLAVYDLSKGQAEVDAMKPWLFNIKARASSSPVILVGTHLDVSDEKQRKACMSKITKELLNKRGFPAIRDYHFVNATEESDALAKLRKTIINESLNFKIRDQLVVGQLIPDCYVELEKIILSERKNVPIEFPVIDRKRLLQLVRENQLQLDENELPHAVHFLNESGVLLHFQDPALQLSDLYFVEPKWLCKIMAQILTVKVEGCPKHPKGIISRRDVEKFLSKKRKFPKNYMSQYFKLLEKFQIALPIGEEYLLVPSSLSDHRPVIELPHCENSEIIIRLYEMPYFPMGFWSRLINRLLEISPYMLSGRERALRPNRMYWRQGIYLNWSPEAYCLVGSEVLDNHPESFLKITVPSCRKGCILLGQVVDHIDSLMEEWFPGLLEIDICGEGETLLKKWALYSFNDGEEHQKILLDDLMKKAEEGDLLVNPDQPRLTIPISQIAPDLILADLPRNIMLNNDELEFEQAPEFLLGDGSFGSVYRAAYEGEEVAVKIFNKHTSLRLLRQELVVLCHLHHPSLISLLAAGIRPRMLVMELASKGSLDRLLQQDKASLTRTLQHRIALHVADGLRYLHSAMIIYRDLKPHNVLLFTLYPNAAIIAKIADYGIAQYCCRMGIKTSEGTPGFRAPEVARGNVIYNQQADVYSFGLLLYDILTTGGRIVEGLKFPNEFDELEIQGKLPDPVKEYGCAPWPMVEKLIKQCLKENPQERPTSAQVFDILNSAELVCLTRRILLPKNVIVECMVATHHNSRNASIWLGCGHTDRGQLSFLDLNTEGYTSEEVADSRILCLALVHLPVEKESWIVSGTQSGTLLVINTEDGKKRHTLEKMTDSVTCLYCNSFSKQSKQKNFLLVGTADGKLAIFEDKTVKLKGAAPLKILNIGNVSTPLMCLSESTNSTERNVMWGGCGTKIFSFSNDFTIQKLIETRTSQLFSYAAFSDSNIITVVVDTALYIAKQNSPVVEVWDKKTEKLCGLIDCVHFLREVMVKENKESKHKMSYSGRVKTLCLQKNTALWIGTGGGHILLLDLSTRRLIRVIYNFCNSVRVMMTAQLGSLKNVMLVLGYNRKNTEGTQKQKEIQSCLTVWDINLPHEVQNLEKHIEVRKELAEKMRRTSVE
Experimental: In order to evaluate the inhibitory activity of the compounds according to the present invention on LRRK2, LRRK2 (G2019S), DYRK1, CLK1 and TTK kinases, the following experiment was performed.
Example compounds were reacted with the purified human LRRK2 (Invitrogen #PR8604B) enzyme to evaluate the enzyme inhibitory ability as follows. The reaction buffer was used as the composition of 40 mM Tris-HCl pH7.4, 20 mM MgCl2, 0.5 mg/ml BSA and 50 μM DTT, and the reaction of all test materials was performed on the reaction buffer. The compound was diluted with 10 mM DMSO stock in 12 steps by a serial dilution method, and the enzyme activity was measured at the final compound concentrations of 50, 10, 2, 0.4, 0.08, 0.016, 0.0032, 0.00064, 0.000128, 0.0000256, 0.00000512 and 0.000001024 μM. In the test, the human LRRK2 (25 ng) enzyme was reacted with the purified ATP (10 μM) and an enzyme substrate ([…]) at 25° C. for 2 hours, and then the enzyme activity was identified using the in vitro ADP-Glo™ kinase assay (promega). The enzyme activity reaction liquid, an ADP-Glo reaction liquid and an enzyme potency detection solution were reacted in a ratio of 2:2:1, and the degree of inhibition of enzyme activity was measured by Luminescence. The degree of inhibition of enzyme activity according to the treatment concentrations of the respective compounds was calculated based on the fluorescence of the enzyme activity of a solvent control group that was not treated with the compound, where the concentration of each compound to inhibit enzyme activity inhibition by 50% was determined as an IC50 (nM) value and obtained using Prism (Version 5.01, GraphPad) software.
In the table below, the following designations were used for the evaluation of enzyme inhibitory ability.

LRRK2 (G2019S) = LRRK2 (G2019S) (Homo sapiens, UniProt Q5S007, G2019S); assay: LRRK2 G2019S enzyme inhibition, ADP-Glo kinase assay; design: purchased SignalChem L10-12GG
Sequence of LRRK2 (G2019S) (Q5S007 970-2527 G2019S limits assumed): as the sequence (Q5S007 970-2527 limits assumed) above, with G1050S counted along it
In short: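 Activity read as ADP-Glo luminescence, normalized to untreated solvent control, with IC50 (nM) fitted over 12 final compound levels (top 50 μM). Reaction: 2 h, 25° C, human LRRK2 G2019S 16 ng, ATP 25 μM, substrate 0.2 μg, in Tris-HCl pH 7.4 with MgCl2, BSA and DTT.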

Row | SMILES | pIC50 [1] | pIC50 (human GST-CLK1 (129-end)) | pIC50 (LRRK2) | pIC50 (LRRK2 (G2019S))
1 | COc1cc(S(C)(=O)=O)ccc1Nc1cc(NC2CC2)c2c(C(F)(F)F)c[nH]c2n1 [Example 187, N^4-cyclopropyl-N^6-(2-methoxy-4-(methylsulfonyl)phenyl)-3-(trifluoromethyl)-1H-pyrrolo[2,3-b]pyridine-4,6-diamine] | 6.00 to 6.52 | 6.00 to 6.52 | 6.00 to 6.52 | 6.00 to 6.52
2 | CCNc1cc(Nc2ccc(P(C)(=O)O)cc2OC)nc2[nH]ccc12 [Example 32, (4-((4-(ethylamino)-1H-pyrrolo[2,3-b]pyridin-6-yl)amino)-3-methoxyphenyl) (methyl)phosphinic acid] | 6.00 to 6.52 | 6.00 to 6.52 | 6.00 to 6.52 | 6.00 to 6.52
3 | CNc1cc(Nc2ccc(C(=O)N3CCOCC3)c3c2OCCO3)nc2[nH]cc(C#N)c12 [Example 106, 4-(methylamino)-6-((8-(morpholine-4-carbonyl)-2,3-dihydrobenzo[b] [1,4]dioxin-5-yl)amino)-1H-pyrrolo[2,3-b]pyridine-3-carbonitrile] | 6.00 to 6.52 | 6.00 to 6.52 | > 7.00 | > 7.00
4 | COc1cc(S(C)(=O)=O)ccc1Nc1cc(NC2CCC2)c2c(C#N)c[nH]c2n1 [Example 120, 4-(cyclobutylamino)-6-((2-methoxy-4-(methylsulfonyl)phenyl)amino)-1H-pyrrolo[2,3-b]pyridine-3-carbonitrile] | 6.00 to 6.52 | 6.00 to 6.52 | > 7.00 | 6.52 to 7.00
5 | COc1cc(S(C)(=O)=O)ccc1Nc1cc(C2CC2)c2c(C#N)c[nH]c2n1 [Example 229, 4-cyclopropyl-6-((2-methoxy-4-(methylsulfonyl)phenyl)amino)-1H-pyrrolo[2,3-b]pyridine-3-carbonitrile] | 6.00 to 6.52 | 6.00 to 6.52 | 6.52 to 7.00 | 6.00 to 6.52
6 | CCNc1cc(Nc2ccc(S(C)(=O)=O)cc2OC)nc2[nH]cc(C#N)c12 [Example 124, 4-(ethylamino)-6-((2-methoxy-4-(methylsulfonyl)phenyl)amino)-1H-pyrrolo[2,3-b]pyridine-3-carbonitrile] | 6.00 to 6.52 | 6.00 to 6.52 | > 7.00 | 6.52 to 7.00
7 | COc1cc(S(C)(=O)=O)ccc1Nc1cc(NCCS(C)(=O)=O)c2c(C#N)c[nH]c2n1 [Example 119, 6-((2-methoxy-4-(methylsulfonyl)phenyl)amino)-4-((2-(methylsulfonyl)ethyl)amino)-1H-pyrrolo[2,3-b]pyridine-3-carbonitrile] | 6.00 to 6.52 | 6.00 to 6.52 | > 7.00 | > 7.00
8 | COCCNc1cc(Nc2ccc(C(=O)N3CCC(N4CCOCC4)CC3)c3c2OCCO3)nc2[nH]cc(C#N)c12 [Example 118, 4-((2-methoxyethyl)amino)-6-((8-(4-morpholinopiperidine-1-carbonyl)-2,3-dihydrobenzo [b] [1,4]dioxin-5-yl)amino)-1H-pyrrolo[2,3-b]pyridine-3-carbonitrile] | 6.00 to 6.52 | > 7.00 | > 7.00 | > 7.00
9 | CCCNc1cc(Nc2ccc(C(=O)N3CCOCC3)c3c2OCCO3)nc2[nH]cc(C(F)(F)F)c12 [Example 174, morpholino(8-((4-(propylamino)-3-(trifluoromethyl)-1H-pyrrolo[2,3-b]pyridin-6-yl)amino)-2,3-dihydrobenzo[b] [1,4]dioxin-5-yl)methanone] | 6.00 to 6.52 | 6.00 to 6.52 | 6.52 to 7.00 | 
10 | COc1cc(P2(=O)CCN(C3CC3)CC2)ccc1Nc1cc(NC2CCC2)c2c(C(F)(F)F)c[nH]c2n1 [Example 46, 4-(4-((4-(cyclobutylamino)-3-(trifluoromethyl)-1H-pyrrolo[2,3-b]pyridin-6-yl)amino)-3-methoxyphenyl)-1-cyclopropyl-1,4-azaphosphinane 4-oxide] | 6.00 to 6.52 | 6.00 to 6.52 | 6.00 to 6.52 | 

Continued, values first:

Row | pIC50 [1] | pIC50 (human GST-CLK1 (129-end)) | pIC50 (LRRK2) | pIC50 (LRRK2 (G2019S)) | SMILES
11 | 6.00 to 6.52 | 6.52 to 7.00 | > 7.00 | > 7.00 | N#Cc1c[nH]c2nc(Nc3ccc(C(=O)N4CCOCC4)c4c3OCCO4)cc(NC3CC3)c12 [Example 111, 4-(cyclopropylamino)-6-((8-(morpholine-4-carbonyl)-2,3-dihydrobenzo[b] [1,4]dioxin-5-yl)amino)-1H-pyrrolo[2,3-b]pyridine-3-carbonitrile]
12 | 6.00 to 6.52 | 6.00 to 6.52 | 6.52 to 7.00 | 6.00 to 6.52 | COCCNc1cc(Nc2ccc(S(C)(=O)=O)cc2OC)nc2[nH]cc(C(F)(F)F)c12 [Example 201, N^6-(2-methoxy-4-(methylsulfonyl)phenyl)-N^4-(2-methoxyethyl)-3-(trifluoromethyl)-1H-pyrrolo[2,3-b]pyridine-4,6-diamine]
13 | 6.00 to 6.52 | 6.00 to 6.52 | > 7.00 | 6.00 to 6.52 | COc1cc(S(C)(=O)=O)ccc1Nc1cc(NC2CCCC2)c2c(C#N)c[nH]c2n1 [Example 121, 4-(cyclopentylamino)-6-((2-methoxy-4-(methylsulfonyl)phenyl)amino)-1H-pyrrolo[2,3-b]pyridine-3-carbonitrile]
14 | 6.00 to 6.52 | 6.00 to 6.52 | > 7.00 | > 7.00 | COCCNc1cc(Nc2ccc(S(C)(=O)=O)cc2OC)nc2[nH]cc(C#N)c12 [Example 126, 6-((2-methoxy-4-(methylsulfonyl)phenyl)amino)-4-((2-methoxyethyl)amino)-1H-pyrrolo[2,3-b]pyridine-3-carbonitrile]
15 | 6.00 to 6.52 | 6.00 to 6.52 | 6.52 to 7.00 | 6.00 to 6.52 | COc1cc(S(C)(=O)=O)ccc1Nc1cc(NC(C)C)c2cc[nH]c2n1 [Example 28, N^4-isopropyl-N^6-(2-methoxy-4-(methylsulfonyl)phenyl)-1H-pyrrolo[2,3-b]pyridine-4,6-diamine]
16 | 6.52 to 7.00 | 6.00 to 6.52 | 6.00 to 6.52 | 6.00 to 6.52 | COc1cc(S(C)(=O)=O)ccc1Nc1cc(NC2CCC2)c2c(Cl)c[nH]c2n1 [Example 85, 3-chloro-N^4-cyclobutyl-N^6-(2-methoxy-4-(methylsulfonyl)phenyl)-1H-pyrrolo[2,3-b]pyridine-4,6-diamine]
17 | > 7.00 | > 7.00 | > 7.00 | > 7.00 | COCCNc1cc(Nc2ccc(C(=O)N3CCOCC3)c3c2OCCO3)nc2[nH]cc(C#N)c12 [Example 109, 4-((2-methoxyethyl)amino)-6-((8-(morpholine-4-carbonyl)-2,3-dihydrobenzo[b] [1,4]dioxin-5-yl)amino)-1H-pyrrolo[2,3-b]pyridine-3-carbonitrile]
18 | 6.00 to 6.52 | 6.00 to 6.52 | > 7.00 | > 7.00 | CCCNc1cc(Nc2ccc(S(C)(=O)=O)cc2OC)nc2[nH]ccc12 [Example 27, N^6-(2-methoxy-4-(methylsulfonyl)phenyl)-N^4-propyl-1H-pyrrolo[2,3-b]pyridine-4,6-diamine]
19 | > 7.00 | > 7.00 | > 7.00 | > 7.00 | COCCNc1cc(Nc2ccc(C(=O)N3CCOCC3)c3c2OCCO3)nc2[nH]cc(C(F)(F)F)c12 [Example 158, (8-((4-((2-methoxyethyl)amino)-3-(trifluoromethyl)-1H-pyrrolo[2,3-b]pyridin-6-yl)amino)-2,3-dihydrobenzo[b] [1,4]dioxin-5-yl)(morpholino) methanone]
20 | > 7.00 | > 7.00 | > 7.00 | > 7.00 | CCNc1cc(Nc2ccc(C(=O)N3CCOCC3)c3c2OCC3)nc2[nH]cc(C(F)(F)F)c12 [Example 89, (7-((4-(ethylamino)-3-(trifluoromethyl)-1H-pyrrolo[2,3-b]pyridin-6-yl)amino)-2,3-dihydrobenzofuran-4-yl)(morpholino) methanone]

From patent publication US12240844B2 (Voronoi, Inc., priority 2019, dated 2025)
